# Measurements published in ChEMBL document CHEMBL5316298, “Discovery of Amphiphilic Xanthohumol Derivatives as Membrane-Targeting Antimicrobials against Methicillin-Resistant Staphylococcus aureus” (J Med Chem, 2023).
# Calls of active or inactive are those of the source. The rule behind the calls is not given here.
# What was measured:
# Staphylococcus aureus [1] = assay: Anti-MRSA activity against methicillin-resistant Staphylococcus aureus 3 incubated for 16 to 18 hrs in presence of 0 to 32 ug/ml phosphatidylglycerol by checkerboard broth dilution method; format: functional; details: time 16-18 hrs
# Staphylococcus aureus [2] = assay: Antibacterial activity against methicillin-resistant Staphylococcus aureus clinical isolate 10 incubated for 16 to 18 hrs by CLSI-based microbroth dilution method; format: functional; details: time 16-18 hrs
# Staphylococcus aureus [3] = assay: Antibacterial activity against methicillin-resistant Staphylococcus aureus 3 infected in KM mouse assessed as reduction in bacterial load at infection site at 10 mg/kg administered into skin infection site measured after 24 hrs relative to control; format: functional; set-up: scale not given: the % may be the effect or the level left
# [4] = Toxicity in KM mouse assessed as effect on RBC count at 20 mg/kg, sc administered into middle dorsum and measured after 24 hrs by routine blood test; format: organism-based, Erythrocyte; details: in vivo
# [5] = Toxicity in KM mouse assessed as pathological changes in kidneys at 20 mg/kg, sc administered into middle dorsum and measured after 24 hrs by H and E staining based analysis; format: organism-based; details: in vivo
# Staphylococcus aureus [6] = assay: Bactericidal activity against Staphylococcus aureus ATCC 29213 at 4 times MIC by time kill assay; format: functional, organism-based; details: time 0-8 hrs, TDE = time-dependent effect
# [7] = Toxicity in KM mouse assessed as effect on platelet count at 20 mg/kg, sc administered into middle dorsum and measured after 24 hrs by routine blood test; format: organism-based; details: in vivo
# Staphylococcus aureus [8] = assay: Antibacterial activity against methicillin-resistant Staphylococcus aureus 3 infected in KM mouse assessed as reduction in abscesses inside the skin at 5 mg/kg administered into skin infection site measured after 24 hrs; format: functional, organism-based
# Cell membrane [9] = assay: Induction of membrane depolarization in methicillin-resistant Staphylococcus aureus 3 assessed as increase in fluorescence intensity measured every 2 mins for 20 mins by SYTOX-green dye based fluorescence assay; format: subcellular; details: dose 8-32 µg/ml
# [10] = Toxicity in KM mouse assessed as mortality at 5 to 80 mg/kg, sc administered into middle dorsum and measured after 24 hrs; format: organism-based; details: in vivo, dose 5-80 mg/kg
# Staphylococcus aureus [11] = assay: Anti-MRSA activity against methicillin-resistant Staphylococcus aureus 3 incubated for 16 to 18 hrs in presence of 64 ug/ml cardiolipin by checkerboard broth dilution method (reference value: 1 ug/ml); format: functional; details: time 16-18 hrs
# Staphylococcus aureus [12] = assay: Antibacterial activity against methicillin-resistant Staphylococcus aureus clinical isolate 3 incubated for 16 to 18 hrs by CLSI-based microbroth dilution method; format: functional; details: time 16-18 hrs
# Staphylococcus aureus [13] = assay: Antibacterial activity against methicillin-resistant Staphylococcus aureus clinical isolate 9 incubated for 16 to 18 hrs by CLSI-based microbroth dilution method; format: functional; details: time 16-18 hrs
# Staphylococcus aureus [14] = assay: Anti-MRSA activity against methicillin-resistant Staphylococcus aureus 3 incubated for 16 to 18 hrs in presence of 0 to 32 ug/ml cardiolipin by checkerboard broth dilution method; format: functional; details: time 16-18 hrs
# [15] = Toxicity in KM mouse assessed as effect on urea level at 20 mg/kg, sc administered into middle dorsum and measured after 24 hrs by routine blood test; format: organism-based; details: in vivo
# [16] = Toxicity in KM mouse assessed as pathological changes in lungs at 20 mg/kg, sc administered into middle dorsum and measured after 24 hrs by H and E staining based analysis; format: organism-based; details: in vivo
# [17] = Toxicity in KM mouse assessed as swelling in skin at 40 to 80 mg/kg, sc administered into middle dorsum and measured after 24 hrs; format: organism-based; details: in vivo, dose 40-80 mg/kg
# Cell membrane [18] = assay: Disruption of membrane integrity in methicillin-resistant Staphylococcus aureus 3 assessed as appearance of uneven cell surface at 16 ug/ml incubated for 240 mins by SEM analysis; format: subcellular; details: dose 16.0 µg/ml
# [19] = Toxicity in KM mouse assessed as effect on creatinine level at 20 mg/kg, sc administered into middle dorsum and measured after 24 hrs by routine blood test; format: organism-based; details: in vivo
# Staphylococcus aureus [20] = assay: Induction of ROS production in methicillin-resistant Staphylococcus aureus 3 assessed as fold increase in intracellular ROS level at 64 ug/ml incubated for 40 mins by DCFH-DA dye based fluorescence analysis relative to control; format: functional
# Staphylococcus aureus [21] = assay: Antibacterial activity against methicillin-resistant Staphylococcus aureus 3 infected in KM mouse assessed as reduction in bacterial load at infection site by measuring colony forming units at 5 mg/kg administered into skin infection site measured after 24 hrs; format: functional
# [22] = Toxicity in KM mouse assessed as pathological changes in spleen at 20 mg/kg, sc administered into middle dorsum and measured after 24 hrs by H and E staining based analysis; format: organism-based; details: in vivo
# L02 = assay: Cytotoxicity against human L02 cells assessed as reduction in cell viability at 64 ug/ml incubated for 24 hrs by CCK-8 assay; format: toxicity, cell-based; details: l02, 24 h, dose 64 µg/ml
# [23] = Toxicity in KM mouse assessed as effect on albumin level at 20 mg/kg, sc administered into middle dorsum and measured after 24 hrs by routine blood test; format: organism-based; details: in vivo
# Staphylococcus aureus [24] = assay: Anti-MRSA activity against methicillin-resistant Staphylococcus aureus 3 incubated for 16 to 18 hrs in presence of 0 to 64 ug/ml peptidoglycan by checkerboard broth dilution method; format: functional, organism-based; details: time 16-18 hrs
# Staphylococcus aureus [25] = assay: Antibacterial activity against methicillin-resistant Staphylococcus aureus 3 infected in KM mouse assessed as reduction in bacterial load at infection site at 5 mg/kg administered into skin infection site measured after 24 hrs relative to control; format: functional; set-up: scale not given: the % may be the effect or the level left
# [26] = Toxicity in KM mouse infected with methicillin-resistant Staphylococcus aureus 3 assessed as spleen damage at 5 to 10 mg/kg administered into skin infection site measured after 24 hrs by H and E staining based analysis; format: organism-based; details: in vivo, topical_or_ocular, dose 5-10 mg/kg
# Staphylococcus aureus [27] = assay: Antibacterial activity against methicillin-resistant Staphylococcus aureus 3 infected in KM mouse assessed as reduction in inflammatory cells in subcutaneous tissue at 5 to 10 mg/kg administered into skin infection site measured after 24 hrs by H and E staining based analysis; format: functional, organism-based; details: dose 5-10 mg/kg
# [28] = Toxicity in KM mouse assessed as abnormalities in skin at 5 to 20 mg/kg, sc administered into middle dorsum and measured after 24 hrs; format: organism-based; details: in vivo, dose 5-20 mg/kg
# Staphylococcus aureus [29] = assay: Antibacterial activity against methicillin-resistant Staphylococcus aureus 3 infected in KM mouse assessed as reduction in bacterial load at infection site by measuring colony forming units at 10 mg/kg administered into skin infection site measured after 24 hrs; format: functional
# Staphylococcus aureus [30] = assay: Antibacterial activity against methicillin-resistant Staphylococcus aureus clinical isolate 8 incubated for 16 to 18 hrs by CLSI-based microbroth dilution method; format: functional; details: time 16-18 hrs
# Cell membrane [31] = assay: Disruption of membrane integrity in methicillin-resistant Staphylococcus aureus 3 assessed as increase in DNA leakage at 1 to 8 times MIC incubated for 4 hrs by microspectrophotometer analysis; format: subcellular
# [32] = Toxicity in KM mouse infected with methicillin-resistant Staphylococcus aureus 3 assessed as histopathological abnormalities in lungs at 5 to 10 mg/kg administered into skin infection site measured after 24 hrs by H and E staining based analysis; format: organism-based; details: in vivo, topical_or_ocular, dose 5-10 mg/kg
# Staphylococcus aureus [33] = assay: Bactericidal activity against Staphylococcus aureus ATCC 29213 at 8 times MIC measured at 1 hr by time kill assay; format: functional, organism-based
# [34] = Toxicity in KM mouse assessed as redness in skin at 40 to 80 mg/kg, sc administered into middle dorsum and measured after 24 hrs; format: organism-based; details: in vivo, dose 40-80 mg/kg
# Staphylococcus aureus [35] = assay: Antibacterial activity against methicillin-resistant Staphylococcus aureus clinical isolate 6 incubated for 16 to 18 hrs by CLSI-based microbroth dilution method; format: functional; details: time 16-18 hrs
compound,measurement,setting,value
CCCN(CCC)C(=O)C[N+](C)(C)CCCCOc1ccc(/C=C/C(=O)c2c(OC)cc3c(c2O)C=CC(C)(C)O3)cc1.[Br-],MIC,Staphylococcus aureus [1],1 µg/mL
same,MIC,Staphylococcus aureus [2],1 µg/mL
same,Activity,Staphylococcus aureus [3],99.998%
same,Activity,[4],Non-Toxic
same,Activity,[5],Non-Toxic
same,Activity,Staphylococcus aureus [6],Tde
same,Activity,[7],Non-Toxic
same,Activity,Staphylococcus aureus [8],inactive
same,Activity,Cell membrane [9],Dose-Dependent Effect
same,Activity,[10],Non-Toxic
same,MIC,Staphylococcus aureus [11],32 µg/mL
same,MIC,Staphylococcus aureus [12],1 µg/mL
same,MIC,Staphylococcus aureus [13],2 µg/mL
same,MIC,Staphylococcus aureus [14],1 µg/mL
same,Activity,[15],Non-Toxic
same,Activity,[16],Non-Toxic
same,Activity,[17],Toxic
same,Activity,Cell membrane [18],Active
same,Activity,[19],Non-Toxic
same,fold change (FC),Staphylococcus aureus [20]; dose 64 µg/ml,7
same,Activity,Staphylococcus aureus [20]; dose 64.0 µg/ml,Active
same,Activity,Staphylococcus aureus [21],3 log10CFU/g
same,Activity,[22],Non-Toxic
same,Activity,L02,Non-Toxic
same,Activity,[23],Non-Toxic
same,Activity,Staphylococcus aureus [24],Active
same,Activity,Staphylococcus aureus [25],99.905%
same,Activity,[26],Non-Toxic
same,Activity,Staphylococcus aureus [27],Active
same,Activity,[28],Non-Toxic
same,Activity,Staphylococcus aureus [29],4.5 log10CFU/g
same,MIC,Staphylococcus aureus [30],2 µg/mL
same,Activity,Cell membrane [31],Dose-Dependent Effect
same,Activity,[32],Non-Toxic
same,Activity,Staphylococcus aureus [33],Active
same,Activity,[34],Toxic
same,MIC,Staphylococcus aureus [35],1 µg/mL
